# Laboratory results: paper PMC9067983, “Identification of highly selective type II kinase inhibitors with chiral peptidomimetic tails” (Journal of Enzyme Inhibition and Medicinal Chemistry, 2022)
# Where a SMILES comes first, the peptide text is derived from it. [ ]: non-standard residue; d: D form. The star is where a group is joined. X1 = Cc1ccc(Nc2ncc3c(n2)N(C)C(=O)N(c2cc(C(=O)*)ccc2C)C3)cn1; Aib = CC(C)(N)C(=O)O
# Experiments:
# Assay in all cases: kinase selectivity profiling
# Assay type in all cases: biochemical
# Conditions in all cases: 10µM ATP, read-out: % inhibition (relative to DMSO)
# STK32B/YANK2 = biological target: T1, STK32B/YANK2 (Homo sapiens, UniProt Q9NY57)
# T1 construct: purchased Reaction Biology Corp
# T1 sequence (Q9NY57 whole entry): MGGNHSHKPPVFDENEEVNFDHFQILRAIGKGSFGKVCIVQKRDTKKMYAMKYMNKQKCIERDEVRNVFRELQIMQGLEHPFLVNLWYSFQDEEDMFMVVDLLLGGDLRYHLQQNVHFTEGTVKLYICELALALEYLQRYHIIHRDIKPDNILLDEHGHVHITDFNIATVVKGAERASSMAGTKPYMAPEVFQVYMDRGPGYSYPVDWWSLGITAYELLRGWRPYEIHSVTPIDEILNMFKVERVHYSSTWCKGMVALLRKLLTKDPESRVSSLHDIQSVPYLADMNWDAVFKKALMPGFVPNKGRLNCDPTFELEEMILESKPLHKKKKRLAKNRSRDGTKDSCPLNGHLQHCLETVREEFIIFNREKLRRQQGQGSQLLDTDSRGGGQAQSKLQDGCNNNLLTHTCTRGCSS
# Procedure: (§1) Full panel kinase profiling and kinase IC50 measurement were performed by using Reaction Biology Corp. (San Diego, USA).
# PAK4 = biological target: T2, PAK4 (Homo sapiens, UniProt O96013)
# T2 construct: purchased Reaction Biology Corp
# Procedure: as §1
# MSSK1/STK23 = biological target: T3, MSSK1/STK23 (Homo sapiens, UniProt Q9UPE1)
# T3 construct: purchased Reaction Biology Corp
# T3 sequence (Q9UPE1 whole entry): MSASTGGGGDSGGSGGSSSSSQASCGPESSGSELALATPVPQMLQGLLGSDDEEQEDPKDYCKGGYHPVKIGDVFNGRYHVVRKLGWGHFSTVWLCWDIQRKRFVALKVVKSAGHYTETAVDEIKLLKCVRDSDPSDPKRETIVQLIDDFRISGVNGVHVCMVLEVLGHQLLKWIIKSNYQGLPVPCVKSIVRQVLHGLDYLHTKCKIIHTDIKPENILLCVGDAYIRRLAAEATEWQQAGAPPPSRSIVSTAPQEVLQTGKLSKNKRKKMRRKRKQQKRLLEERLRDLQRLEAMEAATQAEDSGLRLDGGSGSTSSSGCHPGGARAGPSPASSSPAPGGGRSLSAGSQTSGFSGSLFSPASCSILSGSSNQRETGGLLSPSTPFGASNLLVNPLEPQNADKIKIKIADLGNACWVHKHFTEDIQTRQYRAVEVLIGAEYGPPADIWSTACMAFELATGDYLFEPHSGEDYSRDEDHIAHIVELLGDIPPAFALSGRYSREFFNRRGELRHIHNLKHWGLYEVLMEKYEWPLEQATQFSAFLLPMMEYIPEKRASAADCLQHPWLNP
# Procedure: as §1
# STK32C/YANK3 = biological target: T4, STK32C/YANK3 (Homo sapiens, UniProt Q86UX6)
# T4 construct: purchased Reaction Biology Corp
# Procedure: as §1
# Fgr = biological target: T5, Fgr (Homo sapiens, UniProt P09769)
# T5 construct: purchased Reaction Biology Corp
# Procedure: as §1
# CDK3/cyclin E = biological target: T6, CDK3/cyclin E (Homo sapiens, UniProt Q00526)
# T6 construct: purchased Reaction Biology Corp
# Procedure: as §1
# MYLK3 = biological target: T7, MYLK3 (Homo sapiens, UniProt Q32MK0)
# T7 construct: purchased Reaction Biology Corp
# Procedure: as §1
# TAOK3/JIK = biological target: T8, TAOK3/JIK (Homo sapiens, UniProt Q9H2K8)
# T8 construct: purchased Reaction Biology Corp
# Procedure: as §1
# MYO3A = biological target: T9, MYO3A (Homo sapiens, UniProt Q8NEV4)
# T9 construct: purchased Reaction Biology Corp
# Procedure: as §1
# IKKb/IKBKB = biological target: T10, IKKb/IKBKB (Homo sapiens, UniProt O14920)
# T10 construct: purchased Reaction Biology Corp
# Procedure: as §1
# STK16 = biological target: T11, STK16 (Homo sapiens, UniProt O75716)
# T11 construct: purchased Reaction Biology Corp
# T11 sequence (O75716 whole entry): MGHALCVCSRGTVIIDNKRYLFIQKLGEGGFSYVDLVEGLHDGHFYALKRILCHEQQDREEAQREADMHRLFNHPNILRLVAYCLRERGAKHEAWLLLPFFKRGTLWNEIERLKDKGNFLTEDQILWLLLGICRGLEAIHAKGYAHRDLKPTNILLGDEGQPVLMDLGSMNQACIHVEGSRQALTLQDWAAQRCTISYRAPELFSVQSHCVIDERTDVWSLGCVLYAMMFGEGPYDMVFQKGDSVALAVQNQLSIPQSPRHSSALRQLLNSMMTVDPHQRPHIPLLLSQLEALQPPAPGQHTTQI
# Procedure: as §1
# PEAK1 = biological target: T12, PEAK1 (Homo sapiens, UniProt Q9H792)
# T12 construct: purchased Reaction Biology Corp
# Procedure: as §1
# TRKC = biological target: T13, TRKC (Homo sapiens, UniProt Q16288)
# T13 construct: purchased Reaction Biology Corp
# Procedure: as §1
# ALK1/ACVRL1 = biological target: T14, ALK1/ACVRL1 (Homo sapiens, UniProt P37023)
# T14 construct: purchased Reaction Biology Corp
# Procedure: as §1
# LCK2/ICK = biological target: T15, LCK2/ICK (Homo sapiens, UniProt Q9UPZ9)
# T15 construct: purchased Reaction Biology Corp
# T15 sequence (Q9UPZ9 whole entry): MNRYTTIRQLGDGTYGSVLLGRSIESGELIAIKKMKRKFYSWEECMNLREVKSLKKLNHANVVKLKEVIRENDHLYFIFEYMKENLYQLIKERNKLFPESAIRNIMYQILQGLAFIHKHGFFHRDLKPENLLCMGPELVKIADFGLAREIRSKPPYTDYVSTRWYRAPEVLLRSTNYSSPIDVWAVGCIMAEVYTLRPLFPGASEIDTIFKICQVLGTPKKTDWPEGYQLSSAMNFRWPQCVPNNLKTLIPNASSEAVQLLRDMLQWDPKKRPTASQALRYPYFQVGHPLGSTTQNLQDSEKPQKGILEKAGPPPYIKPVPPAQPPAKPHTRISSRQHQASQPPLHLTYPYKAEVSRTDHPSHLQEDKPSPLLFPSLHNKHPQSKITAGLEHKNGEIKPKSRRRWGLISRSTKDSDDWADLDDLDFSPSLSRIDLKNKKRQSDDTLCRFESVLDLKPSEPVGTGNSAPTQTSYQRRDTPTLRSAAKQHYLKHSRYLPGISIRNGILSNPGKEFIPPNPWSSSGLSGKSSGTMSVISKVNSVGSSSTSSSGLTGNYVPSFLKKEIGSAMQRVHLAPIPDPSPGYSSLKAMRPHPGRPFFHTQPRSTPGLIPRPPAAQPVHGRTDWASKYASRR
# Procedure: as §1
# PLK2 = biological target: T16, PLK2 (Homo sapiens, UniProt Q9NYY3)
# T16 construct: purchased Reaction Biology Corp
# T16 sequence (Q9NYY3 whole entry): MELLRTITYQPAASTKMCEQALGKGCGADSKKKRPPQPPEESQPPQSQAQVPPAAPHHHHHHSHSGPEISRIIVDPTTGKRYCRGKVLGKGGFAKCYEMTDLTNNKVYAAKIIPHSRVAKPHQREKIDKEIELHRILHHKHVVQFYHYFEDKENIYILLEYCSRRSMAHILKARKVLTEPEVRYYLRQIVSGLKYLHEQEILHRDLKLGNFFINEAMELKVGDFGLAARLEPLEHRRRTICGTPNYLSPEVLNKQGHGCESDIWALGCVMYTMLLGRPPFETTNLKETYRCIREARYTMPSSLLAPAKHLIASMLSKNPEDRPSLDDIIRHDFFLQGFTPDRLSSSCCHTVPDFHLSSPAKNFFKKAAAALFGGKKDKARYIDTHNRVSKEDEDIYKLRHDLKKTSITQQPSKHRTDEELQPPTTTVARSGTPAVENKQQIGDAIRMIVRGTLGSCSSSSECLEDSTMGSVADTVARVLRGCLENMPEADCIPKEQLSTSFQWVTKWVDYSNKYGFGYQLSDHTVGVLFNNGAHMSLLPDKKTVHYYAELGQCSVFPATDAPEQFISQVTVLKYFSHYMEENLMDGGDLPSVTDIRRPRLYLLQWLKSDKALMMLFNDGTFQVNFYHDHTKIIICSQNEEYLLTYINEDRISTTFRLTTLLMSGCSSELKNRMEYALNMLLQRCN
# Procedure: as §1
# P38d/MAPK13 = biological target: T17, P38d/MAPK13 (Homo sapiens, UniProt O15264)
# T17 construct: purchased Reaction Biology Corp
# Procedure: as §1
# RET = biological target: T18, RET (Homo sapiens, UniProt P07949)
# T18 construct: purchased Reaction Biology Corp
# Procedure: as §1
# MRCKa/CDC42BPA = biological target: T19, MRCKa/CDC42BPA (Homo sapiens, UniProt Q5VT25)
# T19 construct: purchased Reaction Biology Corp
# Procedure: as §1
# PRKX = biological target: T20, PRKX (Homo sapiens, UniProt P51817)
# T20 construct: purchased Reaction Biology Corp
# T20 sequence (P51817 whole entry): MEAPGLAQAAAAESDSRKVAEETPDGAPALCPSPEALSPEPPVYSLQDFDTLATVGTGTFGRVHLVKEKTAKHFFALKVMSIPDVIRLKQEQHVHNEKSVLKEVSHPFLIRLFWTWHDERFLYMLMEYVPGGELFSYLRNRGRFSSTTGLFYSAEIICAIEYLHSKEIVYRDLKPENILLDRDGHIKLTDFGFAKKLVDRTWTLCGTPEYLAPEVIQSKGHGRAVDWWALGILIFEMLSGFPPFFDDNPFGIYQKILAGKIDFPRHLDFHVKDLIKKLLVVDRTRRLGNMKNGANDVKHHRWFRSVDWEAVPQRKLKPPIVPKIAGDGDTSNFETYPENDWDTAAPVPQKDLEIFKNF
# Procedure: as §1
# STK33 = biological target: T21, STK33 (Homo sapiens, UniProt Q9BYT3)
# T21 construct: purchased Reaction Biology Corp
# T21 sequence (Q9BYT3 whole entry): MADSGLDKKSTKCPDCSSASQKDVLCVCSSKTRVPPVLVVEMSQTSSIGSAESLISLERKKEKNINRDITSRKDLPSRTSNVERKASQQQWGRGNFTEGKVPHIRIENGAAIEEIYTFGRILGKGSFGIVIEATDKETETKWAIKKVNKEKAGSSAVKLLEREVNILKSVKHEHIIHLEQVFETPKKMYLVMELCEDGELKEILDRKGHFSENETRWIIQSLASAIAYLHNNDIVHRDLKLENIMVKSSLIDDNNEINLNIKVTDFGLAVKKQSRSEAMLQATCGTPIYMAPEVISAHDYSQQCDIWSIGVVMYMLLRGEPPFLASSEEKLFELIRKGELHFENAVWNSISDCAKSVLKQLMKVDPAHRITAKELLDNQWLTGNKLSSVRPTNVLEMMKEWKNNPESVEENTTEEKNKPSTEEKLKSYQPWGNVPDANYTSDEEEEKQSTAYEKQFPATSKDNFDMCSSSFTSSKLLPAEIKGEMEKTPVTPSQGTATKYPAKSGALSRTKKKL
# Procedure: as §1
# MYLK4 = biological target: T22, MYLK4 (Homo sapiens, UniProt Q86YV6)
# T22 construct: purchased Reaction Biology Corp
# Procedure: as §1
# DCAMKL1 = biological target: T23, DCAMKL1 (Homo sapiens, UniProt O15075)
# T23 construct: purchased Reaction Biology Corp
# Procedure: as §1
# TYRO3/SKY = biological target: T24, TYRO3/SKY (Homo sapiens, UniProt Q06418)
# T24 construct: purchased Reaction Biology Corp
# Procedure: as §1
# SLK/STK2 = biological target: T25, SLK/STK2 (Homo sapiens, UniProt Q9H2G2)
# T25 construct: purchased Reaction Biology Corp
# Procedure: as §1
# AKT2 = biological target: T26, AKT2 (Homo sapiens, UniProt P31751)
# T26 construct: purchased Reaction Biology Corp
# Procedure: as §1
# PKCa = biological target: T27, PKCa (Homo sapiens, UniProt P17252)
# T27 construct: purchased Reaction Biology Corp
# Procedure: as §1
# TSSK2 = biological target: T28, TSSK2 (Homo sapiens, UniProt Q96PF2)
# T28 construct: purchased Reaction Biology Corp
# Procedure: as §1
# MST3/STK24 = biological target: T29, MST3/STK24 (Homo sapiens, UniProt Q9Y6E0)
# T29 construct: purchased Reaction Biology Corp
# T29 sequence (Q9Y6E0 whole entry): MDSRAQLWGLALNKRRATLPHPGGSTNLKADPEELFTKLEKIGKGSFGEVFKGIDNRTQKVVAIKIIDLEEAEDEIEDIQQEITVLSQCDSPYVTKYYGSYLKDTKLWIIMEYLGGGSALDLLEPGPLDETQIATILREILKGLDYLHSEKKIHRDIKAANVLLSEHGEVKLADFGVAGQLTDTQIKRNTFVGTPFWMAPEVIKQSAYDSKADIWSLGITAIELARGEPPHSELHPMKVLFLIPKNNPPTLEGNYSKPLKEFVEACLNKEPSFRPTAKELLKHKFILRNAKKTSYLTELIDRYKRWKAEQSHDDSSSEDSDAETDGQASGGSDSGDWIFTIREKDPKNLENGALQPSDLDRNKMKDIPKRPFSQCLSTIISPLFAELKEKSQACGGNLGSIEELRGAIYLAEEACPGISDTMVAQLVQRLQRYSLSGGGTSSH
# Procedure: as §1
# YSK4/MAP3K19 = biological target: T30, YSK4/MAP3K19 (Homo sapiens, UniProt Q56UN5)
# T30 construct: purchased Reaction Biology Corp
# Procedure: as §1
# PKN3/PRK3 = biological target: T31, PKN3/PRK3 (Homo sapiens, UniProt Q6P5Z2)
# T31 construct: purchased Reaction Biology Corp
# Procedure: as §1
# BRSK1 = biological target: T32, BRSK1 (Homo sapiens, UniProt Q8TDC3)
# T32 construct: purchased Reaction Biology Corp
# Procedure: as §1
# MEKK6 = biological target: T33, MEKK6 (Homo sapiens, UniProt O95382)
# T33 construct: purchased Reaction Biology Corp
# Procedure: as §1
# CDK2/cyclin A = biological target: T34, CDK2/cyclin A (Homo sapiens, UniProt P24941)
# T34 construct: purchased Reaction Biology Corp
# Procedure: as §1
# CK1g3 = biological target: T35, CK1g3 (Homo sapiens, UniProt Q9Y6M4)
# T35 construct: purchased Reaction Biology Corp
# Procedure: as §1
# ERK5/MAPK7 = biological target: T36, ERK5/MAPK7 (Homo sapiens, UniProt Q13164)
# T36 construct: purchased Reaction Biology Corp
# Procedure: as §1
# LIMK2 = biological target: T37, LIMK2 (Homo sapiens, UniProt P53671)
# T37 construct: purchased Reaction Biology Corp
# Procedure: as §1
# MAK = biological target: T38, MAK (Homo sapiens, UniProt P20794)
# T38 construct: purchased Reaction Biology Corp
# Procedure: as §1
# KSR1 = biological target: T39, KSR1 (Homo sapiens, UniProt Q8IVT5)
# T39 construct: purchased Reaction Biology Corp
# T39 sequence (Q8IVT5 whole entry): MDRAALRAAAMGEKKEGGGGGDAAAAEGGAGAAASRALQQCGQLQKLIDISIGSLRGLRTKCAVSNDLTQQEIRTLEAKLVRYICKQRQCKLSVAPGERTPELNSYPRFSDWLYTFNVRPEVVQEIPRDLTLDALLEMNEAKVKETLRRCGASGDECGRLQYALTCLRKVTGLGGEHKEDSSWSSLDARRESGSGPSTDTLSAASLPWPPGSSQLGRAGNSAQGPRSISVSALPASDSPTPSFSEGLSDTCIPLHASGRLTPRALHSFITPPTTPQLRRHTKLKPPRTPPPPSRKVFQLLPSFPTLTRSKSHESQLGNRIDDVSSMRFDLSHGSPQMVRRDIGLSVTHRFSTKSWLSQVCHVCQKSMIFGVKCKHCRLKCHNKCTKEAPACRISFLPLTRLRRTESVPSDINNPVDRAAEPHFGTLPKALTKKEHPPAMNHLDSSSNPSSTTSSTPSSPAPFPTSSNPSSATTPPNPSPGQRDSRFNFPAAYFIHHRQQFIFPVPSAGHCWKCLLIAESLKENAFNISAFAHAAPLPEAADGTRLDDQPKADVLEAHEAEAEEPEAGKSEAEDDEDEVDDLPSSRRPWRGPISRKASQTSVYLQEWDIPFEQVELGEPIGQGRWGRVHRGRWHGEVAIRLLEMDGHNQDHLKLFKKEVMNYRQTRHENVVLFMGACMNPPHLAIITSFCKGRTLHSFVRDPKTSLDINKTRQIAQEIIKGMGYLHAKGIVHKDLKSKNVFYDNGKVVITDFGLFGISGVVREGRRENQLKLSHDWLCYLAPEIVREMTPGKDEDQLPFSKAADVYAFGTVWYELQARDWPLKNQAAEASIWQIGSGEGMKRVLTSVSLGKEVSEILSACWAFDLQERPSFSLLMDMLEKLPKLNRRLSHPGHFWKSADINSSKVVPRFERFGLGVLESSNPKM
# Procedure: as §1
# CHK1 = biological target: T40, CHK1 (Homo sapiens, UniProt O14757)
# T40 construct: purchased Reaction Biology Corp
# Procedure: as §1
# TXK = biological target: T41, TXK (Homo sapiens, UniProt P42681)
# T41 construct: purchased Reaction Biology Corp
# Procedure: as §1
# SRPK1 = biological target: T42, SRPK1 (Homo sapiens, UniProt Q96SB4)
# T42 construct: purchased Reaction Biology Corp
# Procedure: as §1
smiles,measurement,setting,value
"Cc1ccc(Nc2ncc3c(n2)N(C)C(=O)N(c2cc(C(=O)N[C@H](C(=O)N4CCC[C@H]4C(=O)NC(C)(C)C(=O)N[C@@H](CC(C)C)C(=O)N(C)C)C(C)C)ccc2C)C3)cn1 [7a, (S)-N-(1-(((S)-1-(dimethylamino)-4-methyl-1-oxopentan-2-yl)amino)-2-methyl-1-oxopropan-2-yl)-1-((4-methyl-3-(1-methyl-7-((6-methylpyridin-3-yl)amino)-2-oxo-1,4-dihydropyrimido[4,5-d]pyrimidin-3(2H)-yl)benzoyl)-L-valyl)pyrrolidine-2-carboxamide] (X1-VP[Aib]L-NMe2)",inhibition at 1 µM,STK32B/YANK2,16%
same,inhibition at 1 µM,PAK4,0%
same,inhibition at 1 µM,MSSK1/STK23,10%
same,inhibition at 1 µM,STK32C/YANK3,2%
same,inhibition at 1 µM,Fgr,80%
same,inhibition at 1 µM,CDK3/cyclin E,0%
same,inhibition at 1 µM,MYLK3,0%
same,inhibition at 1 µM,TAOK3/JIK,0%
same,inhibition at 1 µM,MYO3A,0%
same,inhibition at 1 µM,IKKb/IKBKB,0%
same,inhibition at 1 µM,STK16,0%
same,inhibition at 1 µM,PEAK1,44%
same,inhibition at 1 µM,TRKC,21%
same,inhibition at 1 µM,ALK1/ACVRL1,17%
same,inhibition at 1 µM,LCK2/ICK,0%
same,inhibition at 1 µM,PLK2,0%
same,inhibition at 1 µM,P38d/MAPK13,0%
same,inhibition at 1 µM,RET,9%
same,inhibition at 1 µM,MRCKa/CDC42BPA,6%
same,inhibition at 1 µM,PRKX,0%
same,inhibition at 1 µM,STK33,0%
same,inhibition at 1 µM,MYLK4,8%
same,inhibition at 1 µM,DCAMKL1,0%
same,inhibition at 1 µM,TYRO3/SKY,1%
same,inhibition at 1 µM,SLK/STK2,9%
same,inhibition at 1 µM,AKT2,0%
same,inhibition at 1 µM,PKCa,0%
same,inhibition at 1 µM,TSSK2,0%
same,inhibition at 1 µM,MST3/STK24,0%
same,inhibition at 1 µM,YSK4/MAP3K19,0%
same,inhibition at 1 µM,PKN3/PRK3,8%
same,inhibition at 1 µM,BRSK1,2%
same,inhibition at 1 µM,MEKK6,0%
same,inhibition at 1 µM,CDK2/cyclin A,0%
same,inhibition at 1 µM,CK1g3,0%
same,inhibition at 1 µM,ERK5/MAPK7,5%
same,inhibition at 1 µM,LIMK2,12%
same,inhibition at 1 µM,MAK,0%
same,inhibition at 1 µM,KSR1,2%
same,inhibition at 1 µM,CHK1,0%
same,inhibition at 1 µM,TXK,0%
same,inhibition at 1 µM,SRPK1,5%
